Test results taken from ChEMBL document CHEMBL1151659, “Effects of Sesquiterpene Lactones on Development of Aedes atropalpus and Relation to Partition Coefficient” (J Nat Prod, 1985).
Activity calls are given as the source filed them. The rule behind the calls is not given here.

Assays:
Aedes atropalpus [1] = assay: Toxicity in second-instar Aedes atropalpus in pupal stage assessed as growth; type: functional, organism-based
Aedes atropalpus [2] = assay: Toxicity in second-instar Aedes atropalpus in adult stage assessed as growth; type: functional, organism-based
Aedes atropalpus [3] = assay: Toxicity in second-instar Aedes atropalpus larvae at 10 ppm after 24 hrs; type: functional, organism-based
Aedes atropalpus [4] = assay: Toxicity in second-instar Aedes atropalpus larvae at 100 ppm after 24 hrs; type: functional, organism-based
[5] = Partition coefficient, log P of the compound; type: physicochemical; details: octanol/water

| SMILES | Activity (Aedes atropalpus [1]) | Activity (Aedes atropalpus [2]) | Activity (Aedes atropalpus [3]) | Activity (Aedes atropalpus [4]) | logP [5] |
| --- | --- | --- | --- | --- | --- |
| C=C1C(=O)O[C@@H]2C[C@@]3(C)CCC[C@H](C)C3=C[C@H]12 [HELENINE] | Active | Active | Active | Active | 3.38 |
| C=C1C(=O)O[C@@H]2[C@H]1CC[C@H](C)[C@@H]1[C@H](O)CC(=O)[C@]12C [BIPINNATIN] | Active | Active | – | – | 1.62 |
| C=C1C(=O)O[C@@H]2[C@H]1CC[C@H](C)[C@]1(O)CCC(=O)[C@@]21C [CORONOPILIN] | Active | Active | – | – | 1.42 |
| C=C1C(=O)O[C@@H]2C[C@@]3(C)CCCC(=C)[C@@H]3C[C@H]12 [ISOALANTOLACTONE] | Active | Active | Active | Active | 3.42 |
| C[C@H]1C(=O)O[C@@H]2[C@H]1CC[C@H](C)[C@]1(O)C=CC(=O)[C@@]21C [HYMENOLIN] | Active | Active | – | – | 1.7 |
| C=C1C(=O)O[C@@H]2[C@H]1CC[C@H](C)[C@]1(O)C=CC(=O)[C@@]21C [PARTHENIN] | Active | Active | Active | Active | 1.37 |
